Assay [1] concerns HGGX39 (paediatric high-grade glioma line). Kind of assay: area under dose-response curve of % growth inhibition (log2 RLU vs DMSO / staurosporine), 1e-11 to 1e-4 M (% x log10 M); higher = more growth inhibition. In outline:
(§1)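 A 10-point threefold dilution series, mean top concentration 35 μM, was applied in triplicate to patient-derived pHGG/DIPG lines and astrocytes on 1% Geltrex-coated 384-well plates for 7 days (3 days for iAstro) at 37 °C, 5% CO2. Per-plate % activity between solvent and positive controls was calculated from log2-transformed CellTiter-Glo luminescence. Area under the curve followed from the trapezoid rule on a log-logistic fit, or on a smoothing spline when the sigmoid fit failed.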

For a further assay, the system named is DIPGX29 (H3.3 K27M diffuse intrinsic pontine glioma line). The description is as above. In outline: as §1
For a further assay, the system named is HGGX6 (H3.3 G34R paediatric high-grade glioma line). The assay is described as above. In outline:
as §1

Assay [2] deals with DIPGX37 (H3.3 K27M diffuse intrinsic pontine glioma line). Described as above. The method, boiled down: as §1
Assay [3] deals with DIPGX37. The assay is described as follows: EC50 (inflection of fitted growth-inhibition curve) (log10 M). The method, boiled down:
(§2)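 A pin tool was used to add a 10-point threefold dilution series (mean top concentration 35 μM), in triplicate, to patient-derived pHGG/DIPG cell lines and astrocyte controls seeded on 384-well plates coated with 1% Geltrex. After 7 days at 37 °C and 5% CO2 (3 days for iAstro), CellTiter-Glo luminescence was log2-transformed, normalised on each plate to % activity relative to negative (solvent) and positive control wells, and pooled. EC50 and maximal response (yFin) were read from the three- or four-parameter log-logistic fit with the lowest AICc.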

Assay [4] has as its system DIPGX37. Kind of assay: maximal growth inhibition (yFin) relative to DMSO / staurosporine; higher = more efficacious. The method, boiled down: as §2
Assay [5] has as its system HGGX39. The assay is described as follows: EC50 (inflection of fitted growth-inhibition curve) (log10 M). In outline:
as §2

Assay [6] relates to HGGX39. Kind of assay: maximal growth inhibition (yFin) relative to DMSO / staurosporine; higher = more efficacious. In outline: as §2

Take `Nc1nc(F)nc2c1ncn2[C@@H]1O[C@H](COP(=O)(O)O)[C@@H](O)[C@@H]1O` [FLUDARABINE PHOSPHATE]: the “area under dose-response curve” value is 10.3 in the assay with HGGX39 [1], 32.1 in the assay on DIPGX29, 6.46 in the assay on HGGX6 and 39.7 in the assay on DIPGX37 [2].
On to `CCN(CC)CCOC(=O)c1ccc(N)cc1` [PROCAINE], for which the “area under dose-response curve” value with HGGX39 [1] was found to be 1.44; with DIPGX29 it was 3.12; in the assay with HGGX6 it was 0; with DIPGX37 [2], 1.95.
For `CN1CCN(c2ccc(-c3cccc(CN4CCOCC4)c3)cc2NC(=O)c2c[nH]c(=O)cc2C(F)(F)F)CC1` [OICR-9429], the “area under dose-response curve” value in the assay on HGGX39 [1] stood at 6.53; in the assay with DIPGX29, 6.88; in the assay on HGGX6, 15.6; in the assay with DIPGX37 [2] it was 4.44.
The like results for `Nc1ncn([C@@H]2O[C@H](CO)[C@@H](O)[C@H]2O)c(=O)n1` [5-AZACYTIDINE] were, in that order, 17.6, 12.5, 12.1 and 18.2.
On to `Nc1ncn([C@H]2C[C@H](O)[C@@H](CO)O2)c(=O)n1` [DECITABINE], for which the “area under dose-response curve” value in the assay on HGGX39 [1] came to 7.33; in the assay on DIPGX29, 4.32; in the assay with HGGX6, 3.81; with DIPGX37 [2], 9.77.
`CC(C)(C#N)c1cc(Cn2cncn2)cc(C(C)(C)C#N)c1` [ANASTROZOLE]: the “area under dose-response curve” value worked out at 1.48 in the assay on HGGX39 [1], 7.52 in the assay on DIPGX29, 1.46 in the assay with HGGX6 and 5.71 in the assay with DIPGX37 [2].
Take `Cc1sc2c(c1C)C(c1ccc(Cl)cc1)=N[C@@H](CC(N)=O)c1nnc(C)n1-2` [CPI-203]: the “area under dose-response curve” value amounted to 47.1 in the assay with HGGX39 [1], 26.8 with DIPGX29, 35.8 in the assay on HGGX6 and 62.1 in the assay with DIPGX37 [2]. Besides, the “EC50 (log10 M)” value in the assay with DIPGX37 [3] was -6.88. The compound also returned a maximal growth inhibition in the assay with DIPGX37 [4] of 22.3%.
On to `Cc1cn(-c2cc(NC(=O)c3ccc(C)c(Nc4nccc(-c5cccnc5)n4)c3)cc(C(F)(F)F)c2)cn1` [NILOTINIB], for which the “area under dose-response curve” value in the assay on HGGX39 [1] amounted to 14.9; in the assay with DIPGX29, 14.3; in the assay on HGGX6 it was 16.8; in the assay on DIPGX37 [2] it was 18.9.
Regarding `Cn1nnc2c(C(N)=O)ncn2c1=O` [TEMOZOLOMIDE], the “area under dose-response curve” value in the assay with HGGX39 [1] came to 11.3; in the assay on DIPGX29, 5.13; in the assay on HGGX6, 15.3; in the assay on DIPGX37 [2], 15.4.
Regarding `CCCC1O[C@@H]2C[C@H]3[C@@H]4CCC5=CC(=O)C=C[C@]5(C)[C@H]4[C@@H](O)C[C@]3(C)[C@]2(C(=O)CO)O1` (stereo partly drawn) [BUDESONIDE], the “area under dose-response curve” value was found to be 11.8 with HGGX39 [1], 35.7 in the assay on DIPGX29, 6.8 in the assay with HGGX6 and 19.3 in the assay with DIPGX37 [2].
On to `Cn1cc(CCn2cnc(-c3cnn(C)c3)c2-c2ccc(C#N)cc2)cn1` [BAZ2-ICR], for which the “area under dose-response curve” value stood at 16.5 with HGGX39 [1], 8.96 in the assay with DIPGX29, 14.6 in the assay with HGGX6 and 22.9 with DIPGX37 [2].
Take `C[C@H]1C[C@H]2[C@@H]3CCC4=CC(=O)C=C[C@]4(C)[C@@]3(F)[C@@H](O)C[C@]2(C)[C@@]1(O)C(=O)CO` [BETAMETHASONE]: the “area under dose-response curve” value was found to be 11.8 with HGGX39 [1], 23.1 in the assay on DIPGX29, 16.4 with HGGX6 and 10.5 in the assay with DIPGX37 [2].
Consider `CC(=O)O[C@@]12CO[C@@H]1C[C@H](O)[C@@]1(C)C(=O)[C@H](O)C3=C(C)[C@@H](OC(=O)[C@H](O)[C@@H](NC(=O)OC(C)(C)C)c4ccccc4)C[C@@](O)([C@@H](OC(=O)c4ccccc4)[C@H]21)C3(C)C` [DOCETAXEL], for which the “area under dose-response curve” value was found to be 120 in the assay with HGGX39 [1], 55.8 with DIPGX29, 86.7 in the assay with HGGX6 and 56 with DIPGX37 [2].
For the compound `O=C(NCC(=O)N1CCCC1)Nc1ccc2cnccc2c1` [SGC-707], the “area under dose-response curve” value with HGGX39 [1] is 31.4; in the assay on DIPGX29, 20.9; in the assay with HGGX6, 11.3; with DIPGX37 [2], 11.8. Further, the “EC50 (log10 M)” value in the assay with HGGX39 [5] is -4.55. In addition, the maximal growth inhibition in the assay with HGGX39 [6] was found to be 58.4%.
`CCOC(=O)c1ccnc(CNCC(=O)N(CC)CCN(C)C)c1` [KDM5-C70]: the “area under dose-response curve” value in the assay on HGGX39 [1] is 7.74; with DIPGX29, 9.21; with HGGX6, 2.7; in the assay on DIPGX37 [2] it was 3.66.
For `Clc1ccc(C(c2ccccc2Cl)C(Cl)Cl)cc1` (stereo not drawn) [MITOTANE], the “area under dose-response curve” value with HGGX39 [1] was 8.7; in the assay with DIPGX29, 12.9; in the assay with HGGX6 it was 12.5; with DIPGX37 [2] it was 16.1.
`Cc1nc(=O)c2cc(CN(C)c3ccc(C(=O)N[C@@H](CCC(=O)O)C(=O)O)s3)ccc2[nH]1` [RALTITREXED]: the “area under dose-response curve” value is 33.4 with HGGX39 [1], 26.5 with DIPGX29, 16 with HGGX6 and 26.9 in the assay on DIPGX37 [2].
On to `O=C(O)CCCc1ccc(N(CCCl)CCCl)cc1` [CHLORAMBUCIL], for which the “area under dose-response curve” value in the assay with HGGX39 [1] was found to be 20.8; with DIPGX29, 25.8; in the assay with HGGX6, 18.3; in the assay with DIPGX37 [2], 15.9.
In the same order, the values of `Cc1ncc(CNC(=O)N(CCCl)N=O)c(N)n1` [NIMUSTINE] are 1.19, 1.11, 1.35 and 0.
As for `CC1=C(CC(=O)O)c2cc(F)ccc2/C1=C\c1ccc([S+](C)[O-])cc1` (stereo not drawn) [SULINDAC], the “area under dose-response curve” value with HGGX39 [1] is 4.57; in the assay on DIPGX29, 3.44; with HGGX6, 6.88; with DIPGX37 [2] it was 16.9.
On to `Cc1ccc(Nc2nccc(N(C)c3ccc4c(C)n(C)nc4c3)n2)cc1S(N)(=O)=O` [PAZOPANIB], for which the “area under dose-response curve” value with HGGX39 [1] came out at 14.8; in the assay on DIPGX29 it was 14.4; with HGGX6, 16.8; in the assay with DIPGX37 [2], 12.6.
In the same order, the values of `COc1cc([C@@H]2c3cc4c(cc3[C@@H](O[C@@H]3O[C@@H]5CO[C@@H](C)O[C@H]5[C@H](O)[C@H]3O)[C@H]3COC(=O)[C@H]23)OCO4)cc(OC)c1O` [ETOPOSIDE] are 33.1, 39.6, 25.4 and 14.2.
As for `O=C(NCC(=O)N1CCCCC1)Nc1ccc2nnsc2c1` [UNC2327], the “area under dose-response curve” value in the assay on HGGX39 [1] was determined as 5.31; with DIPGX29, 8.94; in the assay with HGGX6, 10.6; with DIPGX37 [2], 3.13.
Consider `Nc1ncn([C@H]2C[C@H](OP(=O)(O)OC[C@H]3O[C@@H](n4cnc5c(=O)[nH]c(N)nc54)C[C@@H]3O)[C@@H](CO)O2)c(=O)n1` [GUADECITABINE], for which the “area under dose-response curve” value in the assay on HGGX39 [1] was determined as 0; in the assay with DIPGX29, 0; in the assay on HGGX6, 0; with DIPGX37 [2] it was 16.4.
Turning to `CN(C)/N=N/c1[nH]cnc1C(N)=O` [DACARBAZINE], the “area under dose-response curve” value was 19.3 with HGGX39 [1], 6.29 in the assay with DIPGX29, 16.5 in the assay on HGGX6 and 17.2 in the assay on DIPGX37 [2].
As to `Nc1cc(F)ccc1NC(=O)/C=C/c1cnn(C/C=C/c2ccccc2)c1` [RGFP966], the “area under dose-response curve” value with HGGX39 [1] came out at 13.5; in the assay with DIPGX29, 17.1; in the assay on HGGX6, 12.3; in the assay with DIPGX37 [2], 66.1. In addition, in the assay with DIPGX37 [3], the “EC50 (log10 M)” value was -4.62. In the assay with DIPGX37 [4], this compound gave a maximal growth inhibition of 68.6%.
Consider `Cc1cc(C#N)cc(C)c1Oc1nc(Nc2ccc(C#N)cc2)nc(N)c1Br` [ETRAVIRINE], for which the “area under dose-response curve” value is 18.9 with HGGX39 [1], 24.2 in the assay on DIPGX29, 9.91 in the assay on HGGX6 and 10.8 in the assay with DIPGX37 [2].
As to `O=c1[nH]cc(F)c(=O)[nH]1` [5-FLUOROURACIL], the “area under dose-response curve” value in the assay with HGGX39 [1] is 10.6; in the assay on DIPGX29 it was 17.6; with HGGX6, 25.2; with DIPGX37 [2], 4.4.

Source of the values: the supplement of paper PMC8253809.
